Each block holds one compound with its values, some of them ahead of it. Starred links: 1 amine or outer side, 2 acyl side, 3 side chain; linkers in the order of their positions; H or OH if unused. Positions of bridges follow the written chain, without caps; N, C: chain ends. Non-standard residues stand in square brackets, D forms with d. Residues, ends and D or L forms follow the SMILES beside them. No end group written: not given here. X1 = CC(=O)NC(C(=O)OC(C(C)C)C(N[*:1])C(=O)[*:2])C(O)C(C)C; PhLac = O=C(O)[CH](O)Cc1ccccc1; NMeT = CN[CH](C(=O)O)[CH](C)O; NMeA = CN[CH](C)C(=O)O; NMeDha = C=C(NC)C(=O)O
How the values were obtained:
GLUTag cells = assay: GLP-1 secretion from control-transduced or untransduced GLUTag cells; format: cell-based, murine
Experimental: (§1) GLUTag cells were maintained in Dulbecco’s Modified Eagle Medium (DMEM) supplemented with 10% fetal bovine serum and 1% penicillin–streptomycin in a humidified incubator at 37 °C and 5% CO2. For adenovirus transduction, GLUTag cells were seeded into poly-D-lysine coated 96-well plates or 4-chamber slides. The next day, cells were transduced with adenoviruses (100–1250 viral particles per cell at time of seeding) as indicated. After 24–30 h, adenovirus-containing media was changed to serum-free growth media for overnight serum starvation. The following day, GLUTag cells were used for cAMP or calcium signaling assays, GLP-1 secretion assays, or immunostaining and imaging.
(§2) GLUTag cells were seeded into poly-D-lysine-coated 96-well plates and transduced with adenovirus as specified above and then tested for GLP-1 secretion. Medium was removed and cells were washed two times with GLP-1 secretion buffer (138 mM NaCl, 4.5 mM KCl, 4.2 mM NaHCO3, 2.5 mM CaCl2, 1.2 mM MgCl2, 10 mM HEPES, 1 mM glucose, and 0.1% bovine serum albumin, pH 7.4). Cells were stimulated for 2 h with indicated treatments diluted in GLP-1 secretion buffer for a total volume of 200 µL/well at 37 °C and 5% CO2. Plates were then centrifuged at 300× g for 1 min at 4 °C, and 75 µL of the supernatant was removed and frozen at −80 °C until subsequent GLP-1 quantification. Total GLP-1 was quantified using the Meso Scale Discovery Total GLP-1 V-PLEX kit (Rockville, MD, USA; K1503PD) according to manufacturer’s instructions. For PTX treatment conditions, cells were pretreated with 100 ng/mL PTX overnight. For experiments with YM-254890, cells were pretreated for 15 min at 37 °C and 5% CO2.

hGPR17L [1] = target: T1, hGPR17L (Homo sapiens, UniProt Q13304); assay: GLP-1 secretion from GLUTag cells expressing hGPR17L; format: cell-based; parameters: host or cells: GLUTag cells (murine enteroendocrine line), adenoviral transduction
T1 sequence (Q13304 whole entry): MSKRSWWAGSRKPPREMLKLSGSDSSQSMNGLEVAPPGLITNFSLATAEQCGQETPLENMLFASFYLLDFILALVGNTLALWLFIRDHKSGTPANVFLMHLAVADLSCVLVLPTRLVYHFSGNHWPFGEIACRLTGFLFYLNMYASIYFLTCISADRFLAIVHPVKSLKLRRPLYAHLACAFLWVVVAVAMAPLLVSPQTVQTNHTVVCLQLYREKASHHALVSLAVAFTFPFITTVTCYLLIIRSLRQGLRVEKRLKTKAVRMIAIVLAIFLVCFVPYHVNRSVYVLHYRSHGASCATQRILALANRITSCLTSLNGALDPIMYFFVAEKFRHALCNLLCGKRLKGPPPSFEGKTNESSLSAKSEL
Experimental: as §1, §2

hGPR17L [2] = target: T1, hGPR17L; assay: Endpoint cAMP (HTRF) in GLUTag cells expressing hGPR17L; format: cell-based; parameters: host or cells: GLUTag cells (murine enteroendocrine line), adenoviral transduction; details: for Predicted (LS) mean diff.: Fig 2B, Forskolin, +Vehicle vs. +100 nM YM-254890
Experimental: as §1
Endpoint cAMP measurements were conducted as follows. GLUTag cells were seeded into poly-D-lysine-coated 96-well plates and transduced with adenovirus as specified above and then tested for cAMP signaling. Medium was removed and cells were washed with cAMP stimulation buffer (Hanks’ balanced salt solution (HBSS), 20 mM HEPES, pH 7.4) and then incubated in cAMP stimulation buffer for 30 min at 37 °C and 5% CO2. Cells were then treated for 30 min with agonist and forskolin in the presence of 500 µM IBMX at 37 °C and 5% CO2. Stimulation buffer was then decanted, and cAMP lysis buffer (50 mM HEPES, 10 mM CaCl2, 0.35% Triton X-100, and 500 µM IBMX) was added and shaken at 700 rpm for 1 h. Lysate was transferred to a 384-well plate, and the cAMP levels were quantified using the Cisbio HTRF cAMP (Gi kit; Revvity, Waltham, MA, USA) according to the manufacturer’s protocol.

hGPR17L [3] = target: T1, hGPR17L; assay: Calcium flux (Calcium 6) in GLUTag cells expressing hGPR17L; format: cell-based; parameters: host or cells: GLUTag cells (murine enteroendocrine line), adenoviral transduction
Experimental: as §1
GLUTag cells were seeded into black, clear bottom, poly-D-lysine-coated 96-well plates. Cells were transduced and serum starved as specified above. Growth medium was then replaced with 100 μL/well assay buffer (HBSS, 20 mM HEPES, pH 7.4) and 100 μL/well Calcium 6 loading dye (R8190; Molecular Devices, San Jose, CA, USA). During dye loading, cells were incubated at 37 °C and 5% CO2 for 2 h. MDL29,951 or KCl was added to the wells and fluorescence (485 nm excitation, 525 nm emission, and 515 nm automatic emission cutoff) was measured using a Molecular Devices FlexStation3 (Molecular Devices) at 37 °C. For experiments with PTX, cells were pretreated with 100 ng/mL PTX overnight and 100 ng/mL PTX was included with Calcium 6 loading dye for calcium flux assays. For experiments with YM-254890, cells were pretreated for 30 min at 37 °C.

Compound: Cc1onc(-c2ccccc2Cl)c1C(=O)N(C)c1ccc(Cl)cc1 [GPBAR-A]
increase in GLP-1 secretion (GLUTag cells; 10 µM GPBAR-A, control transduction condition): 2.67 ± 0.17 fold

Compound: CCCCCCCCCCCCCC(=O)O[C@@H]1[C@@H](C)[C@@]2(O)[C@@H](C=C(CO)C[C@]3(O)C(=O)C(C)=C[C@@H]23)[C@@H]2C(C)(C)[C@]12OC(C)=O [PMA, phorbol 12-myristate 13-acetate]
increase in GLP-1 secretion (GLUTag cells; 300 nM PMA, control transduction condition): 4.14 ± 0.18 fold

Compound: somatostatin (AGCKNFFWKTFTSC; ends and bridges not checked; cysteine pairing not given here; UniProt P61278 103-116, looked up) [SST, Endogenous somatostatin receptor agonist]
effect on F/I-stimulated GLP-1 secretion (GLUTag cells; 1 µM SST, control- and hGPR17L-transduced cells (Figure S4A,B)): inhibited

The next lines start with results.

effect on MDL29,951-mediated inhibition of F/I-stimulated GLP-1 secretion (hGPR17L [1]; 10 µM HAMI3379): significantly attenuated
Compound: O=C(O)c1ccc(OCCCc2ccc(OCCCCOC3CCCCC3)cc2)c(C(=O)NC2CCCC(C(=O)O)C2)c1 (centres unmarked) [HAMI3379]

cAMP levels in response to PGE2 stimulation, % of the control-transduced cells (hGPR17L [2]; 300 nM PGE2, hGPR17L-expressing cells): 83 ± 5.5%
Compound: CCCCC[C@H](O)/C=C/[C@H]1[C@H](O)CC(=O)[C@@H]1C/C=C\CCCC(=O)O [PGE2, prostaglandin E2]
increase in GLP-1 secretion (GLUTag cells; 300 nM PGE2, control transduction condition): 1.90 ± 0.06 fold

effect on basal cAMP (hGPR17L [2]; 100 ng/mL PTX or 100 nM YM-254890, control- or hGPR17L-transduced): no effects
Predicted (LS) mean diff. (hGPR17L [2]; log [MDL29,951] (M) -4.0): 17.41
Predicted (LS) mean diff. (hGPR17L [2]; log [MDL29,951] (M) -4.6): 19.49
Predicted (LS) mean diff. (hGPR17L [2]; log [MDL29,951] (M) -5.2): 17.04
Predicted (LS) mean diff. (hGPR17L [2]; log [MDL29,951] (M) -5.8): 11.34
Predicted (LS) mean diff. (hGPR17L [2]; log [MDL29,951] (M) -6.4): 5.843
Predicted (LS) mean diff. (hGPR17L [2]; log [MDL29,951] (M) -7.0): 2.922
Predicted (LS) mean diff. (hGPR17L [2]; log [MDL29,951] (M) -7.6): 8.08
Predicted (LS) mean diff. (hGPR17L [2]; log [MDL29,951] (M) -8.2): 13.01
Predicted (LS) mean diff. (hGPR17L [2]; log [MDL29,951] (M) -8.8): 10.15
Predicted (LS) mean diff. (hGPR17L [2]; log [MDL29,951] (M) -9.4): 6.783
effect on 15 mM KCl-stimulated calcium mobilization (hGPR17L [3]; 100 ng/mL PTX or 100 nM YM-254890, Figure 2D): no effect
concentration giving robust inhibition of MDL29,951-stimulated calcium mobilization (hGPR17L [3]; 1 µM MDL29,951, concentration-response): ~ 100 nM
effect on 15 mM KCl-stimulated calcium flux (hGPR17L [3]; YM-254890 concentration-response, Figure S5D): no effect
effect on PMA-stimulated GLP-1 secretion (hGPR17L [1]; 100 nM YM-254890, 300 nM PMA, control or hGPR17L-expressing cells): no effect
effect on MDL29,951-mediated inhibition of PMA-stimulated GLP-1 secretion (hGPR17L [1]; 100 nM YM-254890, 100 µM MDL29,951, 300 nM PMA): no effect
effect on F/I-stimulated GLP-1 secretion (hGPR17L [1]; 3 µM YM-254890, hGPR17L-expressing cells): strong inhibitory effects
Compound: C=C1C(=O)NC(C)C(=O)N(C)C(C)C(=O)NC(C(OC(=O)C(NC(C)=O)C(O)C(C)C)C(C)C)C(=O)N(C)C(C(C)OC)C(=O)OC(C)C(NC(C)=O)C(=O)OC(Cc2ccccc2)C(=O)N1C (centres unmarked) [YM-254890] (Ac-T[PhLac][NMeDha]A[NMeA][X1][NMeT](Me); ester 1-C; configuration not given here)
effect on F/I-stimulated GLP-1 secretion (GLUTag cells; 100 nM YM-254890, GLUTag cells): inhibited
effect on F/I-stimulated GLP-1 secretion (GLUTag cells; 3 µM YM-254890, control cells): strong inhibitory effects
effect on PMA-stimulated GLP-1 secretion (GLUTag cells; YM-254890 concentration–response, 300 nM PMA): no effect

From PMC11762167, “G Protein-Coupled Receptor 17 Inhibits Glucagon-like Peptide-1 Secretion via a Gi/o-Dependent Mechanism in Enteroendocrine Cells” (Biomolecules, 2024)
